Laboratory results: patent US20020137929A1, “1 - (3-heterocyclylphenyl) isothiourea, -isourea, -guanidine and -amidine herbicidal agents” (Intellectual Property Department, BASF Aktiengesellschaft, priority 1998, published 2002)

Experiments:
[1] = test system: IPOHE (Morningglory, Ivyleaf); experiment: Postemergence herbicidal evaluation; assay type: in vivo, Ipomoea hederacea; settings: postemergence
Outline: (§1)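 Compound is applied as a foliar spray to seedlings about two weeks old, formulated in equal parts acetone and water with 0.5% TWEEN 20 and delivered at 40 psi to give about 0.0156–0.500 kg per hectare. Injury is rated visually 0–9 after four to five weeks.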

[2] = test system: ECHORC (Watergrass (Calif.)); experiment: Postemergence weed control under flooded paddy conditions; assay type: in vivo, Echinochloa oryzoides; settings: postemergence weeds, rated 3 to 4 weeks after treatment
Outline: (§2)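 Weeds 3 to 5 cm tall and rice seedlings at the 1.5 to 2.5 leaf stage were flooded, with water held 1.5 to 3 cm above the soil. Compounds in 50/50 v/v aqueous/acetone went into the flood water at about 0.0313 to 0.500 kg/ha. Visual 0-9 ratings versus control were made 3 to 4 weeks later.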

SETVI (Foxtail, Green) = experiment: Preemergence herbicidal evaluation; assay type: in vivo, Setaria viridis; settings: rated 4-5 weeks after treatment
Outline: (§3)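 Greenhouse preemergence test: seed-soil mix sown on ~1 inch soil; aqueous acetone spray at equivalent of ~0.0156–0.500 kg/ha; greenhouse-held and watered; scored 0–9 visually at 4–5 weeks.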

ORYSAT (Rice, Tebonnet) = experiment: Preemergence herbicidal evaluation; assay type: in vivo, Oryza sativa, (L.) Tebonnet; settings: rated 4-5 weeks after treatment
Outline: as §3

[3] = test system: TRZAWR (Wheat, Winter, cv Riband); experiment: Postemergence herbicidal evaluation; assay type: in vivo, Triticum aestivum; settings: postemergence
Outline: as §1

[4] = test system: CHEAL (Lambsquarters, Common); experiment: Preemergence herbicidal evaluation; assay type: in vivo, Chenopodium album; settings: rated 4-5 weeks after treatment
Outline: as §3

[5] = test system: ECHORC (Watergrass (Calif.)); experiment: Preemergence weed control under flooded paddy conditions; assay type: in vivo, Echinochloa oryzoides; settings: rated 3-4 weeks after treatment
Outline: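 Seeds or propagules sown in top 0.5 cm of silt loam soil, flooded 1.5 to 3 cm above surface throughout. Compound in 50/50 v/v aqueous/acetone pipetted into flood water at about 0.0313 to 0.500 kg/ha. Visual 0-9 rating versus control after three to four weeks in greenhouse.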

ABUTH (Velvetleaf) = experiment: Postemergence herbicidal evaluation; assay type: in vivo, Abutilon theophrasti; settings: postemergence
Outline: as §1

ECHCG (Barnyardgrass) = experiment: Preemergence herbicidal evaluation; assay type: in vivo, Echinochloa crus-galli; settings: rated 4-5 weeks after treatment
Outline: as §3

[6] = test system: IPOHE (Morningglory, Ivyleaf); experiment: Preemergence herbicidal evaluation; assay type: in vivo, Ipomoea hederacea; settings: rated 4-5 weeks after treatment
Outline: as §3

CYPIR (Rice Flatsedge) = experiment: Postemergence weed control under flooded paddy conditions; assay type: in vivo, Cyperus iria; settings: postemergence weeds, rated 3 to 4 weeks after treatment
Outline: as §2

[7] = test system: TRZAWR (Wheat, Winter, cv Riband); experiment: Preemergence herbicidal evaluation; assay type: in vivo, Triticum aestivum; settings: rated 4-5 weeks after treatment
Outline: as §3

COC(=O)C(Cc1ccc(Cl)cc1)N1C(=O)CSC1=Nc1cc(-n2c(=O)cc(C(F)(F)F)n(C)c2=O)c(F)cc1Cl (racemic) [Compound 77, Methyl α-(p-chlorobenzyl)-2-{{2-chloro-5-[3,6-dihydro-3-methyl-2,6-dioxo-4-(trifluoromethyl)-1(2H)-pyrimidinyl]-4-fluorophenyl}imino}-4-oxo-3-thiazolidineacetate, DL-]
IPOHE herbicidal rating ([1]; rate 0.0158 kg/ha): 9.0
IPOHE herbicidal rating ([1]; rate 0.0315 kg/ha): 9.0
IPOHE herbicidal rating ([1]; rate 0.0630 kg/ha): 9.0
Herbicidal rating ECHORC ([2]; Rate 0.0313 kg/ha): 9.0
Herbicidal rating ECHORC ([2]; Rate 0.0625 kg/ha): 9.0
Herbicidal rating ECHORC ([2]; Rate 0.1250 kg/ha): 9.0
Herbicidal rating ECHORC ([2]; Rate 0.2500 kg/ha): 9.0
Preemergence herbicidal rating SETVI (SETVI (Foxtail, Green); rate 0.0156 kg/ha): 0.0
Preemergence herbicidal rating SETVI (SETVI (Foxtail, Green); rate 0.0313 kg/ha): 0.0
Preemergence herbicidal rating SETVI (SETVI (Foxtail, Green); rate 0.0625 kg/ha): 0.0
Preemergence herbicidal rating SETVI (SETVI (Foxtail, Green); rate 0.1250 kg/ha): 0.0
Preemergence herbicidal rating SETVI (SETVI (Foxtail, Green); rate 0.2500 kg/ha): 9.0
Preemergence herbicidal rating ORYSAT (ORYSAT (Rice, Tebonnet); rate 0.0156 kg/ha): 0.0
Preemergence herbicidal rating ORYSAT (ORYSAT (Rice, Tebonnet); rate 0.0313 kg/ha): 0.0
Preemergence herbicidal rating ORYSAT (ORYSAT (Rice, Tebonnet); rate 0.0625 kg/ha): 0.0
Preemergence herbicidal rating ORYSAT (ORYSAT (Rice, Tebonnet); rate 0.1250 kg/ha): 0.0
Preemergence herbicidal rating ORYSAT (ORYSAT (Rice, Tebonnet); rate 0.2500 kg/ha): 0.0
TRZAWR herbicidal rating ([3]; rate 0.0158 kg/ha): 3.0
TRZAWR herbicidal rating ([3]; rate 0.0315 kg/ha): 2.5
TRZAWR herbicidal rating ([3]; rate 0.0630 kg/ha): 3.0
Preemergence herbicidal rating CHEAL ([4]; rate 0.0156 kg/ha): 2.0
Preemergence herbicidal rating CHEAL ([4]; rate 0.0313 kg/ha): 9.0
Preemergence herbicidal rating CHEAL ([4]; rate 0.0625 kg/ha): 9.0
Preemergence herbicidal rating CHEAL ([4]; rate 0.1250 kg/ha): 9.0
Preemergence herbicidal rating CHEAL ([4]; rate 0.2500 kg/ha): 9.0
ECHORC herbicidal effect rating ([5]; 0.0313 kg/ha): 9.0
ECHORC herbicidal effect rating ([5]; 0.0625 kg/ha): 9.0
ECHORC herbicidal effect rating ([5]; 0.1250 kg/ha): 9.0
ECHORC herbicidal effect rating ([5]; 0.2500 kg/ha): 9.0
ABUTH herbicidal rating (ABUTH (Velvetleaf); rate 0.0158 kg/ha): 9.0
ABUTH herbicidal rating (ABUTH (Velvetleaf); rate 0.0315 kg/ha): 9.0
ABUTH herbicidal rating (ABUTH (Velvetleaf); rate 0.0630 kg/ha): 9.0
Preemergence herbicidal rating ECHCG (ECHCG (Barnyardgrass); rate 0.0156 kg/ha): 0.0
Preemergence herbicidal rating ECHCG (ECHCG (Barnyardgrass); rate 0.0313 kg/ha): 0.0
Preemergence herbicidal rating ECHCG (ECHCG (Barnyardgrass); rate 0.0625 kg/ha): 0.0
Preemergence herbicidal rating ECHCG (ECHCG (Barnyardgrass); rate 0.1250 kg/ha): 0.0
Preemergence herbicidal rating ECHCG (ECHCG (Barnyardgrass); rate 0.2500 kg/ha): 0.0
Preemergence herbicidal rating IPOHE ([6]; rate 0.0156 kg/ha): 1.0
Preemergence herbicidal rating IPOHE ([6]; rate 0.0313 kg/ha): 0.0
Preemergence herbicidal rating IPOHE ([6]; rate 0.0625 kg/ha): 0.0
Preemergence herbicidal rating IPOHE ([6]; rate 0.1250 kg/ha): 0.0
Preemergence herbicidal rating IPOHE ([6]; rate 0.2500 kg/ha): 2.0
Herbicidal rating CYPIR (CYPIR (Rice Flatsedge); Rate 0.0313 kg/ha): 0.0
Herbicidal rating CYPIR (CYPIR (Rice Flatsedge); Rate 0.0625 kg/ha): 0.0
Herbicidal rating CYPIR (CYPIR (Rice Flatsedge); Rate 0.1250 kg/ha): 0.0
Herbicidal rating CYPIR (CYPIR (Rice Flatsedge); Rate 0.2500 kg/ha): 0.0
Preemergence herbicidal rating TRZAWR ([7]; rate 0.0156 kg/ha): 0.0
Preemergence herbicidal rating TRZAWR ([7]; rate 0.0313 kg/ha): 0.0
Preemergence herbicidal rating TRZAWR ([7]; rate 0.0625 kg/ha): 0.0
Preemergence herbicidal rating TRZAWR ([7]; rate 0.1250 kg/ha): 1.0
Preemergence herbicidal rating TRZAWR ([7]; rate 0.2500 kg/ha): 0.0
